# Measured values as given in ChEMBL document CHEMBL5230110, “FabI (enoyl acyl carrier protein reductase) - A potential broad spectrum therapeutic target and its inhibitors” (Eur J Med Chem, 2020).
# How the values were obtained:
# [1] = target: T1, Enoyl-[acyl-carrier-protein] reductase [NADH] FabI (Escherichia coli K-12, UniProt P0AEK4); assay: Inhibition of Escherichia coli FabI in the presence of NADH using crotonyl CoA as substrate by measuring NADH consumption rate
# T1 sequence (P0AEK4 whole entry): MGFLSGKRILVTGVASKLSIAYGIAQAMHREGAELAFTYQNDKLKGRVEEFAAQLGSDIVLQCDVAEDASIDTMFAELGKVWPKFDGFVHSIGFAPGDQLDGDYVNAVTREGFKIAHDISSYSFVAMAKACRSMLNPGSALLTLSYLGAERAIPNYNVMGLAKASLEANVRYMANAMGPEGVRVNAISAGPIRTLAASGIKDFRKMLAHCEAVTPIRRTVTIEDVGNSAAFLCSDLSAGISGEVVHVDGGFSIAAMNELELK
# Escherichia coli [2] = assay: Antibacterial activity against Escherichia coli ATCC 8730 assessed as inhibition of bacterial growth; assay type: functional
# Vibrio cholerae = assay: Antibacterial activity against Vibrio cholerae; assay type: functional
# Staphylococcus aureus [3] = assay: Antibacterial activity against Staphylococcus aureus ATCC 11632 assessed as reduction in bacterial growth at 25 ug/ml measured after 24 hrs serial dilution method; assay type: functional; settings: dose 25 µg/ml
# Bacillus subtilis = assay: Antibacterial activity against Bacillus subtilis ATCC 60511 assessed as reduction in bacterial growth at 25 ug/ml measured after 24 hrs serial dilution method; assay type: functional; settings: dose 25 µg/ml
# Escherichia coli [4] = assay: Antibacterial activity against Escherichia coli assessed as bacterial growth inhibition at 50 uM measured after 24 hrs by 96-wellplate reader assay method; assay type: functional
# Staphylococcus aureus [5] = assay: Antibacterial activity against Methicillin-resistant Staphylococcus aureus ATCC 33592 assessed as bacterial growth inhibition measured after 24 hrs by broth dilution method; assay type: functional
# Staphylococcus aureus [6] = assay: Antibacterial activity against Methicillin-resistant Staphylococcus aureus N315 assessed as reduction in bacterial growth; assay type: functional
# [7] = Inhibition of Bacillus anthracis enoyl ACP reductase assessed as inhibition of bacterial growth
# Bacillus anthracis = assay: Antibacterial activity against Bacillus anthracis assessed as reduction in bacterial growth measured after 24 hrs by broth microdilution method; assay type: functional
# Staphylococcus aureus [8] = assay: Antibacterial activity against methicillin resistant Staphylococcus aureus assessed as reduction in bacterial growth incubated for 12 hrs by microdilution method; assay type: functional
# Staphylococcus aureus [9] = assay: Bactericidal activity against methicillin-resistant Staphylococcus aureus measured after 24 hrs by sub-culturing; assay type: functional
# Staphylococcus aureus [10] = assay: Antibacterial activity against methicillin-sensitive Staphylococcus aureus assessed as reduction in bacterial growth incubated for 12 hrs by microdilution method; assay type: functional
# HeLa = assay: Cytotoxicity against human HeLa cells assessed as inhibition of cell growth incubated for 48 hrs by CCK8 assay; assay type: functional, cell-based
# [11] = Cytotoxicity against mouse MH-S cells; assay type: functional, cell-based
# [12] = Inhibition of Pseudomonas fluorescens FabI assessed as inhibition
# [13] = Inhibition of Pseudomonas fluorescens FabG assessed as inhibition
# Escherichia coli [14] = assay: Antibacterial activity against Escherichia coli assessed as inhibition of LPS biosynthesis; assay type: functional
# [15] = Inhibition of Francisella tularensis FabI by addition of crotonyl-CoA as substrate preincubated for 10 mins followed by substrate addition in presence of NAD by spectrophotometer
# Staphylococcus aureus [16] = assay: Antibacterial activity against Staphylococcus aureus ATCC 29213 assessed as bacterial growth inhibition incubated for 24 hrs by broth dilution method; assay type: functional
# Staphylococcus aureus [17] = assay: Antibacterial activity against methicillin-resistant Staphylococcus aureus ATCC 4330 assessed as reduction in bacterial growth; assay type: functional
# Staphylococcus aureus [18] = assay: Antibacterial activity against Methicillin-sensitive Staphylococcus aureus ATCC 4330 assessed as reduction in bacterial growth; assay type: functional
# [19] = target: T2, Enoyl-[acyl-carrier-protein] reductase [NADPH] FabI (Staphylococcus aureus, UniProt Q6GI75); assay: Inhibition of Staphylococcus aureus ATCC 29213 FabI in the presence of NADH using crotonyl CoA as substrate by measuring NADH consumption rate
# T2 sequence (Q6GI75 whole entry): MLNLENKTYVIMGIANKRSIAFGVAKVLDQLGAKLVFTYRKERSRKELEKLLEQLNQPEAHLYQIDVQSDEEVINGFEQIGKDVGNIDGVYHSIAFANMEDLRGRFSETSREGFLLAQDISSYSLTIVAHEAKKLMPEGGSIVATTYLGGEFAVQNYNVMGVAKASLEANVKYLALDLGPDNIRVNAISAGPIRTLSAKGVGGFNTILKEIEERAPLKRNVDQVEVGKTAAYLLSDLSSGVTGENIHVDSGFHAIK
# Staphylococcus aureus [20] = assay: Antibacterial activity against Staphylococcus aureus assessed as inhibition of bacterial growth measured after 24 hrs; assay type: functional
# Moraxella catarrhalis = assay: Antibacterial activity against Moraxella catarrhalis assessed as inhibition in bacterial growth measured after 24 hrs by broth microdilution method; assay type: functional
# [21] = target: T2, Enoyl-[acyl-carrier-protein] reductase [NADPH] FabI; assay: Inhibition of Staphylococcus aureus FabI in the presence of NADH using crotonyl CoA as substrate by measuring NADH consumption rate
# [22] = test system: Mycobacterium tuberculosis; assay: Antimycobacterial activity against Mycobacterium tuberculosis H37Rv; assay type: functional
# Staphylococcus aureus [23] = assay: Antibacterial activity against quinolone-resistant Staphylococcus aureus; assay type: functional
# [24] = target: T1, Enoyl-[acyl-carrier-protein] reductase [NADH] FabI; assay: Inhibition of Escherichia coli DH5alpha FabI in the presence of NADH using crotonyl CoA as substrate by measuring NADH consumption rate
# [25] = test system: Mycobacterium tuberculosis; assay: Antimycobacterial activity against Mycobacterium tuberculosis H37Rv assessed as reduction in bacterial growth incubated for 7 days by dye based assay; assay type: functional; settings: 168 h, time 7 day
# [26] = test system: Mycobacterium tuberculosis; assay: Antibacterial activity against Mycobacterium tuberculosis assessed as inhibition of […]; assay type: functional
# [27] = Inhibition of Plasmodium falciparum NF54 HDAC using extract measured after 60 mins by fluorescence assay
smiles,measurement,setting,value
Cc1cc(Cl)ccc1Oc1c[nH]c(COc2ccccc2)cc1=O,IC50,[1],400 nM
O=C(NN1C(=O)CC1c1cc2cc(Br)ccc2nc1Cl)c1ccncc1 (stereo unspecified),MIC,Escherichia coli [2],0.4 µg/mL
same,MIC,Vibrio cholerae,0.4 µg/mL
same,MIC,Staphylococcus aureus [3],12.5 µg/mL
same,MIC,Bacillus subtilis,12.5 µg/mL
Cc1ccc(Oc2ccccc2)c(O)c1,MIC,Escherichia coli [4],1 µg/mL
Cc1c(N)cccc1Cn1ccc(OCCc2cccs2)cc1=O [CG-400549],MIC,Staphylococcus aureus [5],0.25 µg/mL
same,MIC90,Staphylococcus aureus [6],0.25 µg/mL
Oc1cc(Cl)ccc1Oc1ccccc1,MIC,Escherichia coli [4],0.07 µg/mL
Oc1cc(F)ccc1Oc1ccccc1,MIC,Escherichia coli [4],0.6 µg/mL
O=[N+]([O-])c1ccc(Oc2ccc(Cl)cc2O)c(Cl)c1,IC50,[7],300 nM
same,MIC,Bacillus anthracis,< 0.1 µg/mL
same,MIC,Staphylococcus aureus [8],0.3 µg/mL
same,MBC,Staphylococcus aureus [9],0.5 µg/mL
same,MIC,Staphylococcus aureus [10],0.1 µg/mL
same,EC50,HeLa,29.3 µg/mL
same,EC50,[11],9.9 µg/mL
C=C1C(=O)OC[C@H]1C(/C=C(\C)CC(=O)C=C(C)C)OC(C)=O (stereo partly specified),IC50,[12],25 µg/mL
same,IC50,[13],50 µg/mL
COc1nc2ccc(C)cc2cc1C1CC(=O)N1NC(=O)c1ccc(-n2cccc2)cc1 (stereo unspecified),MIC,Escherichia coli [2],0.4 µg/mL
same,MIC,Vibrio cholerae,0.4 µg/mL
same,MIC,Staphylococcus aureus [3],12.5 µg/mL
same,MIC,Bacillus subtilis,12.5 µg/mL
CCCS(=O)(=O)N1N=Cc2cc(C)sc2B1O,MIC,Escherichia coli [14],1.25 µg/mL
COc1ccc(Cn2cnc3cc4c(cc32)CCC4)cc1C,IC50,[15],5 nM
same,MIC,Staphylococcus aureus [16],> 12.5 µg/mL
same,MIC,Staphylococcus aureus [5],> 12.5 µg/mL
Cc1c(CN(C)C(=O)/C=C/c2cnc3c(c2)C(C)(C)C(=O)N3)oc2ccccc12,MIC,Staphylococcus aureus [17],0.015 µg/mL
same,MIC,Staphylococcus aureus [18],0.015 µg/mL
CC(=O)c1cc2c(=O)c3c(C(=O)O)c(O)c(O)cc3oc2c(C(C)=O)c1-c1coc2cc(O)c(O)c(C(=O)O)c2c1=O [VINAXANTHONE],IC50,[19],900 nM
O=C(c1ccc(O)cc1)N1CCc2c(n(Cc3ccc(O)cc3)c3ccccc23)C1,MIC,Staphylococcus aureus [20],0.5 µg/mL
same,MIC,Moraxella catarrhalis,8 µg/mL
Cc1ccc(Oc2coc(COc3ccccc3)cc2=O)c(C)c1,IC50,[21],380000 nM
same,MIC,Staphylococcus aureus [6],1.56 µg/mL
COc1nc2ccc(Br)cc2cc1C1CC(=O)N1NC(=O)c1ccncc1 (stereo unspecified),MIC,Escherichia coli [2],0.4 µg/mL
same,MIC,Vibrio cholerae,0.4 µg/mL
same,MIC,Staphylococcus aureus [3],3.12 µg/mL
same,MIC,Bacillus subtilis,3.12 µg/mL
COc1nc2ccc(Br)cc2cc1/C=N/NC(=O)c1ccc(-n2cccc2)cc1,MIC,[22],1.6 µg/mL
CN1C(=O)[C@@H](c2cc(Cl)c(O)c(Cl)c2)NC(=O)[C@@H]2NC(=O)[C@@H](c3cc(Cl)c(O)c(Cl)c3)NC(=O)[C@H](NC(=O)C(=O)c3cc(Cl)c(O)c(Cl)c3)Cc3c[nH]c4c(cccc34)-c3cc2cc(c3O)Oc2ccc(cc2)C[C@H]1C(=O)N[C@@H](C(=O)O)c1ccc(O)cc1 [CHLOROPEPTIN],IC50,[19],300 nM
same,MIC,Staphylococcus aureus [23],4 µg/mL
Cc1cccc(Cl)c1Cc1c(Cl)n(Cc2cccs2)ccc1=O,IC50,[19],350 nM
same,IC50,[24],400 nM
same,MIC90,Staphylococcus aureus [6],2 µg/mL
Cc1c(CN(C)C(=O)/C=C/c2cnc3c(c2)C2(CCC2)C(=O)N3)sc2ccccc12,MIC,Staphylococcus aureus [17],0.015 µg/mL
same,MIC,Staphylococcus aureus [18],0.015 µg/mL
Cc1csc(C(C)(O)c2nnc(Nc3ccn(Cc4c(F)cccc4F)n3)s2)n1 (stereo unspecified),MIC,[25],0.2 µM
OB1c2ccccc2N=C(S)N1c1cccnc1,MIC,[26],8 µg/mL
C=C1C(=O)OC[C@H]1C(O)/C=C(\C)CC(=O)C=C(C)C (stereo partly specified),IC50,[27],20 µg/mL
same,IC50,[12],20 µg/mL
same,IC50,[13],75 µg/mL
